Reference: ChEMBL document CHEMBL1156142, “COX, LOX and platelet aggregation inhibitory properties of Lauraceae neolignans” (Bioorg Med Chem Lett, 2009)

Key:
Ovis aries = species on record: Ovis aries; assay: Selectivity ratio of IC50 for ovine COX-1 to IC50 for ovine COX-2
[1] = Antiplatelet activity in rabbit platelets assessed as inhibition of arachidonic acid-induced platelet aggregation; type: functional, cell-based, Oryctolagus cuniculus
[2] = Antiplatelet activity in rabbit platelets assessed as inhibition of platelet activating factor-induced platelet aggregation; type: functional, cell-based, Oryctolagus cuniculus
[3] = Antiplatelet activity in rabbit platelets assessed as inhibition of adenosin 5'-diphosphate-induced platelet aggregation; type: functional, cell-based; settings: Oryctolagus cuniculus
[4] = biological target: T1, Prostaglandin G/H synthase 1 (Ovis aries, UniProt P05979)
T1 sequence (P05979 whole entry): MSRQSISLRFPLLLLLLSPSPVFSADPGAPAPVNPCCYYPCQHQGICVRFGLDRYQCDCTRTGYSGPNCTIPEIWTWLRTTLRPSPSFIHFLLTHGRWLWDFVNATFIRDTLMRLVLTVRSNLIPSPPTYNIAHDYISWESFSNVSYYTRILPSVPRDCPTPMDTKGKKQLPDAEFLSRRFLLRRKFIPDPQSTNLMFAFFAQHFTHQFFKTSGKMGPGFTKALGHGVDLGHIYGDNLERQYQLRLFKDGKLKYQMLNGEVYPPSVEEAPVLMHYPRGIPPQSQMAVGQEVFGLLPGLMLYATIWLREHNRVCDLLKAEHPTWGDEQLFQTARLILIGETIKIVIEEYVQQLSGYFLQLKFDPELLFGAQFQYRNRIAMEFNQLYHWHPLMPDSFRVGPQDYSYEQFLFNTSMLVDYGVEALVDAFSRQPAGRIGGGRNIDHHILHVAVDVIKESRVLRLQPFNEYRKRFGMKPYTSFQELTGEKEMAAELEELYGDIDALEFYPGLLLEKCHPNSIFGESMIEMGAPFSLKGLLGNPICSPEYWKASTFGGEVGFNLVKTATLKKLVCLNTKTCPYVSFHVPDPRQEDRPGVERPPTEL
Description: Inhibition of ovine COX-1 assessed as inhibition of transformation of AA to PGH2 by EIA

[5] = Inhibition of potato LOX-5 assessed as inhibition of hydroperoxide production after 5 mins by EIA; parameters: species or system Solanum tuberosum
[6] = Oryctolagus cuniculus, Platelet

Structure (SMILES) | Ratio IC50 (Ovis aries) | IC50 [1, 6] | IC50 [2, 6] | IC50 [3] | IC50 [4] | IC50 [5] | IC50 ([1]; platelet) | IC50 ([2]; platelet)
O=C(O)/C=C/c1ccc(O)c(O)c1 | 3.74 |  |  |  |  |  |  | 
C=CCC1=C[C@]2(OC)[C@@H](O)[C@@](OC)(C1=O)[C@@H](c1cc(OC)c(OC)c(OC)c1)[C@@H]2C (stereo in doubt; 8) [NECTAMAZIN B] |  | 68.7 µM | 1.37 µM | > 999 µM | 72.2 µM | 156 µM |  | 
C=CCC1=C[C@]2(OC)[C@@H](O)[C@@](OC)(C1=O)[C@@H](c1cc(OC)c(OC)c(OC)c1)[C@@H]2C (stereo in doubt; 9) [NECTAMAZIN B] |  |  |  |  | 152 µM | 42.4 µM | 43.4 µM | 1.72 µM
C=CCC1=C[C@]2(OC)C(=O)C(C1=O)[C@H](c1cc(OC)c(OC)c(OC)c1)[C@H]2C [4'-OXO-MACROPHYLLIN B] |  | 78.9 µM | 7.47 µM | 521 µM | 356 µM | 92.5 µM |  | 
C=CCC1=C[C@]2(OC)C(=CC1=O)O[C@@H](c1ccc(OC)c(OC)c1)[C@H]2C [(+)-DENUDATIN B] | 15.6 | 58.3 µM | 75.6 µM | 148 µM | 88.6 µM | 0.199 µM |  | 
C/C=C/c1cc(OC)c2c(c1)[C@H](C)[C@@H](c1ccc3c(c1)OCO3)O2 [(-)-LICARIN B] | 426 | 290 µM | 488 µM | 54.6 µM | 366 µM | 14.3 µM |  | 
C/C=C/c1cc(OC)c2c(c1)[C@@H](C)[C@H](c1ccc(OC)c(OC)c1)O2 [ACUMINATIN] | 146 | 222 µM | 65.3 µM | 75.6 µM | 223 µM | 7.75 µM |  | 
CC(=O)Oc1ccccc1C(=O)O [ASPIRIN] |  | 5.33 µM | 10.3 µM | 545 µM |  | 0.162 µM |  | 
Cc1ccc(-c2cc(C(F)(F)F)nn2-c2ccc(S(N)(=O)=O)cc2)cc1 [CELECOXIB] |  |  |  |  |  | 73.4 µM |  | 
C=CCC1=C[C@]2(OC)C(=O)[C@@](OC)(C1=O)[C@H](c1cc(OC)c3c(c1)OCO3)[C@H]2C [CINERIN A] |  | 75.6 µM |  | 88.9 µM | 165 µM | 45.6 µM |  | 
C=CCC1=C[C@@]2(OC)[C@H](C)[C@@H](c3cc(OC)c4c(c3)OCO4)[C@H](C1=O)[C@@H]2O [CINERIN B] |  | 42.8 µM | 1.51 µM | > 999 µM | 32.5 µM | 146 µM |  | 
C=CCC1=C[C@]2(OC)[C@H](C)[C@@H](c3cc(OC)c4c(c3)OCO4)[C@](OC)(C1=O)[C@H]2O [CINERIN C] |  | 85.8 µM | 1.09 µM | > 999 µM | 28.3 µM | 136 µM |  | 
C=CCC1=C[C@@]2(OC)C(=O)[C@](OC)([C@H](c3cc(OC)c4c(c3)OCO4)[C@H]2C)[C@H]1O [CINERIN D] |  | 25.6 µM | 6.63 µM |  | 188 µM | 8.84 µM |  | 
C[C@@H]1C(=O)O[C@H]2[C@H](O)[C@@]34[C@H]5C[C@@H](C(C)(C)C)[C@]36[C@@H](OC(=O)[C@@H]6O)O[C@@]4(C(=O)O5)[C@@]12O [GINKOLIDE B] |  | 75.6 µM | 0.925 µM | > 999 µM |  |  |  | 
C=CCC1=C[C@@]2(OC)[C@H](C)[C@@H](c3ccc(OC)c(OC)c3)[C@H](C1=O)[C@@H]2O [KADSURENIN C] |  | 54.6 µM | 2.33 µM | > 999 µM | 38.7 µM | 117 µM |  | 
C=CCC1=C[C@@]2(OC)C(=CC1=O)O[C@H](c1ccc(OC)c(OC)c1)[C@H]2C [KADSURENONE] | 12.6 | 5.61 µM | 0.153 µM | 38.1 µM | 25.6 µM | 0.104 µM |  | 
C/C=C/c1cc(OC)c2c(c1)[C@H](C)[C@@H](c1ccc(O)c(OC)c1)O2 [LICARIN A] | 35.5 | 489 µM | > 999 µM | 112 µM | 312 µM | 9.73 µM |  | 
C/C=C/c1cc(OC)c2c(c1)[C@@H](C)[C@H](c1ccc(O)c(OC)c1)O2 [LICARINE A] | 12.5 | 556 µM | > 999 µM | 165 µM | 245 µM | 3.69 µM |  | 
C/C=C/c1cc(OC)c2c(c1)[C@@H](C)[C@H](c1ccc3c(c1)OCO3)O2 [LICARINE B] | 157 | 326 µM | 565 µM | 56.7 µM | 289 µM | 5.55 µM |  | 
C=CCc1cc2c(cc1O)O[C@H](c1ccc3c(c1)OCO3)[C@H]2C [LILIFLOL A] | 10.2 | 145 µM | 18.4 µM | 124 µM | 179 µM | 1.81 µM |  | 
C=CCC1=C[C@]2(OC)C(=O)C([C@@H]1O)[C@H](c1cc(OC)c(OC)c(OC)c1)[C@H]2C [MACROPHYLLIN B] |  | 23.2 µM | 6.79 µM | 121 µM | 216 µM | 18.9 µM |  | 
C=CCC1=C[C@@]2(OC)C(=CC1=O)O[C@H](c1cc(OC)c(OC)c(OC)c1)[C@H]2C [MIRANDIN A] |  | 38.7 µM | 3.28 µM |  | 77.9 µM | 0.62 µM |  | 
C=CCC1=C[C@@]2(OC)[C@@H](C)[C@H](c3cc(OC)c(OC)c(OC)c3)[C@](OC)([C@H]1O)[C@H]2O [NECTAMAZIN C] |  | 21.6 µM | 3.78 µM | > 999 µM | 74.6 µM | 12.8 µM |  | 
C=CCc1cc(OC)c2oc(-c3ccc4c(c3)OCO4)cc2c1 [NEOLIGNAN 9-NOR-7,8-DEHYDRO-ISOLICARIN B] | 329 | 426 µM | 460 µM | > 999 µM | 349 µM | 106 µM |  | 
COc1cc(C=O)cc2c(C)c(-c3ccc4c(c3)OCO4)oc12 [OCOPHYLLALS A] | 436 | 568 µM | > 999 µM | 102 µM | 123 µM | 7.31 µM |  | 
COc1cc(-c2oc3c(OC)cc(C=O)cc3c2C)cc(OC)c1OC [OCOPHYLLALS B] | 412 | 425 µM | 847 µM | 98.3 µM | 102 µM | 8.02 µM |  | 
C=CCC1=C[C@@]2(OC)[C@H](C)[C@@H](c3ccc4c(c3)OCO4)[C@H](C1=O)[C@H]2O [OCOPHYLOL A] |  | 45.6 µM | 3.08 µM | 636 µM | 88.6 µM | 256 µM |  | 
C=CCC1=C[C@@]2(OC)[C@H](C)[C@@H](c3ccc(OC)c(OC)c3)[C@H](C1=O)[C@H]2O [OCOPHYLOL B] |  | 38.8 µM | 3.03 µM | 725 µM | 94.9 µM | 189 µM |  | 
C=CCC1=C[C@@]2(OC)[C@H](C)[C@@H](c3cc(OC)c(OC)c(OC)c3)[C@H](C1=O)[C@H]2O [OCOPHYLOL C] |  | 48.6 µM | 2.34 µM | > 999 µM | 72.1 µM | 176 µM |  | 
